Columns and labels:
Alternaria solani = Alternaria solani (early blight of tomato/potato) in vitro test, radial growth on potato dextrose agar; format: cell-based; settings: 168 h, 300 ppm in potato dextrose agar, 25° C., 60% relative humidity, seven days, read-out: control compared to the untreated check (radial growth)
Pyricularia oryzae = assay: microbe, parasite or virus in culture; format: cell-based; settings: 168 h, read-out: control compared to the untreated check (radial growth)
[1] = test system: Septoria lycopersici/Corynespora cassicola (CORYCA); assay: Septoria lycopersici/Corynespora cassicola (CORYCA) (leaf spot of tomato) in vitro test, radial growth on potato dextrose agar; format: cell-based; settings: 168 h, 300 ppm in potato dextrose agar, 25° C., 70% relative humidity, seven days, read-out: control compared to the untreated check (radial growth)
Colletotrichum capsici = Colletotrichum capsici (anthracnose) in vitro test, radial growth on potato dextrose agar; format: cell-based; settings: Colletotrichum truncatum, 168 h; 300 ppm in potato dextrose agar; 25° C., 60% relative humidity, seven days; read-out: control compared to the untreated check (radial growth)
Botrytis cinerea = Botrytis cinerea (gray mold) in vitro test, radial growth on potato dextrose agar; format: cell-based; settings: 168 h, 300 ppm in potato dextrose agar, 22° C., 90% relative humidity, seven days, read-out: control compared to the untreated check (radial growth)
Rhizoctonia solani = Rhizoctonia solani (rice sheath blight/potato black scurf) in vitro test, radial growth on potato dextrose agar; format: cell-based; settings: 168 h, 300 ppm in potato dextrose agar, 25° C., 60% relative humidity, seven days, read-out: control compared to the untreated check (radial growth)
Phakopsora pachyrhizi = Phakopsora pachyrhizi test in soybean, preventive, in vivo on plants; settings: in Glycine max, read-out: Efficacy (% control), disease severity compared to the untreated check

CCN(C)C=Nc1cc(C)cc(N(C)c2ncc(Cl)cc2C)c1Cl [Compound 118, N′-(2-chloro-3-((5-chloro-3-methylpyridin-2-yl)(methyl)amino)-5-methylphenyl)-N-ethyl-N-methylformimidamide]
≥ 70%: inhibition of growth at 300 ppm (Alternaria solani) | inhibition of growth at 300 ppm (Pyricularia oryzae) | inhibition of growth at 300 ppm [1] | inhibition of growth at 300 ppm (Colletotrichum capsici) | inhibition of growth at 300 ppm (Botrytis cinerea)

CCN(C)C=Nc1cc(F)cc(Nc2cc(F)cc(Cl)c2)c1C [Compound 96, N′-(3-((3-chloro-5-fluorophenyl)amino)-5-fluoro-2-methylphenyl)-N-ethyl-N-methylformimidamide]
≥ 70%: inhibition of growth at 300 ppm (Alternaria solani) | inhibition of growth at 300 ppm (Pyricularia oryzae) | inhibition of growth at 300 ppm (Rhizoctonia solani) | inhibition of growth at 300 ppm [1] | inhibition of growth at 300 ppm (Colletotrichum capsici) | inhibition of growth at 300 ppm (Botrytis cinerea)

CCN(C)C=Nc1cc(F)cc(Cc2cccc(Cl)c2)c1C [Compound 144, N′-(3-(3-chlorobenzyl)-5-fluoro-2-methylphenyl)-N-ethyl-N-methylformimidamide]
≥ 70%: inhibition of growth at 300 ppm (Alternaria solani) | inhibition of growth at 300 ppm (Pyricularia oryzae) | inhibition of growth at 300 ppm (Rhizoctonia solani) | inhibition of growth at 300 ppm [1] | inhibition of growth at 300 ppm (Colletotrichum capsici) | pest or weed control at 500 ppm (Phakopsora pachyrhizi) | inhibition of growth at 300 ppm (Botrytis cinerea)

CCN(C)C=Nc1cc(Cl)cc(Cc2ccccc2F)c1C [Compound 103, N′-(5-chloro-3-(2-fluorobenzyl)-2-methylphenyl)-N-ethyl-N-methylformimidamide]
≥ 70%: inhibition of growth at 300 ppm (Alternaria solani) | inhibition of growth at 300 ppm (Pyricularia oryzae) | inhibition of growth at 300 ppm (Rhizoctonia solani) | inhibition of growth at 300 ppm [1] | inhibition of growth at 300 ppm (Colletotrichum capsici) | pest or weed control at 500 ppm (Phakopsora pachyrhizi) | inhibition of growth at 300 ppm (Botrytis cinerea)

CCN(C)C=Nc1cc(C)cc(Nc2cc(Cl)ccc2C)c1Cl [Compound 100, N′-(2-chloro-3-((5-chloro-2-methylphenyl)amino)-5-methylphenyl)-N-ethyl-N-methylformimidamide]
≥ 70%: inhibition of growth at 300 ppm (Alternaria solani) | inhibition of growth at 300 ppm (Pyricularia oryzae) | inhibition of growth at 300 ppm (Rhizoctonia solani) | inhibition of growth at 300 ppm [1] | inhibition of growth at 300 ppm (Colletotrichum capsici) | pest or weed control at 500 ppm (Phakopsora pachyrhizi) | inhibition of growth at 300 ppm (Botrytis cinerea)

CCN(C)C=Nc1cc(F)cc(Cc2ccc(F)c(C)c2)c1C [Compound 203, N-ethyl-N′-(5-fluoro-3-(4-fluoro-3-methylbenzyl)-2-methylphenyl)-N-methylformimidamide]
≥ 70%: inhibition of growth at 300 ppm (Alternaria solani) | inhibition of growth at 300 ppm (Pyricularia oryzae) | inhibition of growth at 300 ppm (Rhizoctonia solani) | inhibition of growth at 300 ppm [1] | inhibition of growth at 300 ppm (Colletotrichum capsici) | pest or weed control at 500 ppm (Phakopsora pachyrhizi) | inhibition of growth at 300 ppm (Botrytis cinerea)

CCN(C)C=Nc1cc(F)cc(Cc2cc(C)cc(F)c2)c1C [Compound 235, N-ethyl-N′-(5-fluoro-3-(3-fluoro-5-methylbenzyl)-2-methylphenyl)-N-methylformimidamide]
≥ 70%: inhibition of growth at 300 ppm (Alternaria solani) | inhibition of growth at 300 ppm (Pyricularia oryzae) | inhibition of growth at 300 ppm (Rhizoctonia solani) | inhibition of growth at 300 ppm [1] | inhibition of growth at 300 ppm (Colletotrichum capsici) | pest or weed control at 500 ppm (Phakopsora pachyrhizi) | inhibition of growth at 300 ppm (Botrytis cinerea)

CCN(C)C=Nc1cc(C)cc(Cc2ccc(Br)c(C)c2)c1Cl [Compound 216, N′-(3-(4-bromo-3-methylbenzyl)-2-chloro-5-methylphenyl)-N-ethyl-N-methylformimidamide]
≥ 70%: inhibition of growth at 300 ppm (Alternaria solani) | inhibition of growth at 300 ppm (Pyricularia oryzae) | inhibition of growth at 300 ppm (Rhizoctonia solani) | inhibition of growth at 300 ppm [1] | inhibition of growth at 300 ppm (Colletotrichum capsici) | pest or weed control at 500 ppm (Phakopsora pachyrhizi) | inhibition of growth at 300 ppm (Botrytis cinerea)

CCN(C)C=Nc1cc(C)cc(Nc2ccccc2)c1Cl [Compound 9, N′-(2-chloro-5-methyl-3-(phenylamino)phenyl)-N-ethyl-N-methylformimidamide]
≥ 70%: inhibition of growth at 300 ppm (Alternaria solani) | inhibition of growth at 300 ppm (Pyricularia oryzae) | inhibition of growth at 300 ppm (Rhizoctonia solani) | inhibition of growth at 300 ppm [1] | inhibition of growth at 300 ppm (Colletotrichum capsici) | inhibition of growth at 300 ppm (Botrytis cinerea)

CCN(C)C=Nc1cc(F)cc(Nc2ccccc2C)c1C [Compound 15, N-ethyl-N′-(5-fluoro-2-methyl-3-(o-tolylamino)phenyl)-N-methylformimidamide]
≥ 70%: inhibition of growth at 300 ppm (Alternaria solani) | inhibition of growth at 300 ppm (Pyricularia oryzae) | inhibition of growth at 300 ppm (Rhizoctonia solani) | inhibition of growth at 300 ppm [1] | inhibition of growth at 300 ppm (Colletotrichum capsici) | inhibition of growth at 300 ppm (Botrytis cinerea)

CCN(C)C=Nc1cc(F)cc(N(C)c2ccccc2)c1C [Compound 11, N-ethyl-N′-(5-fluoro-2-methyl-3-(methyl(phenyl)amino)phenyl)-N-methylformimidamide]
≥ 70%: inhibition of growth at 300 ppm (Alternaria solani) | inhibition of growth at 300 ppm (Rhizoctonia solani) | inhibition of growth at 300 ppm [1] | inhibition of growth at 300 ppm (Colletotrichum capsici) | inhibition of growth at 300 ppm (Botrytis cinerea)

CCN(C)C=Nc1cc(F)cc(Nc2cccc(Cl)c2)c1C [Compound 37, N′-(3-((3-chlorophenyl)amino)-5-fluoro-2-methylphenyl)-N-ethyl-N-methylformimidamide]
≥ 70%: inhibition of growth at 300 ppm (Alternaria solani) | inhibition of growth at 300 ppm (Pyricularia oryzae) | inhibition of growth at 300 ppm (Rhizoctonia solani) | inhibition of growth at 300 ppm [1] | inhibition of growth at 300 ppm (Colletotrichum capsici) | inhibition of growth at 300 ppm (Botrytis cinerea)

CCN(C)C=Nc1cc(F)cc(Nc2ccccc2F)c1C [Compound 19, N-ethyl-N′-(5-fluoro-3-((2-fluorophenyl)amino)-2-methylphenyl)-N-methylformimidamide]
≥ 70%: inhibition of growth at 300 ppm (Alternaria solani) | inhibition of growth at 300 ppm (Pyricularia oryzae) | inhibition of growth at 300 ppm (Rhizoctonia solani) | inhibition of growth at 300 ppm [1] | inhibition of growth at 300 ppm (Colletotrichum capsici) | inhibition of growth at 300 ppm (Botrytis cinerea)

CCN(C)C=Nc1cc(Cl)cc(N(C)c2cnccn2)c1C [Compound 213, N′-(5-chloro-2-methyl-3-(methyl(pyrazin-2-yl)amino)phenyl)-N-ethyl-N-methylformimidamide]
≥ 70%: inhibition of growth at 300 ppm (Alternaria solani) | inhibition of growth at 300 ppm (Pyricularia oryzae) | inhibition of growth at 300 ppm (Rhizoctonia solani) | inhibition of growth at 300 ppm [1] | inhibition of growth at 300 ppm (Colletotrichum capsici) | inhibition of growth at 300 ppm (Botrytis cinerea)

CCN(C)C=Nc1cc(C)cc(Nc2ccccc2C)c1Cl [Compound 24, N′-(2-chloro-5-methyl-3-(o-tolylamino)phenyl)-N-ethyl-N-methylformimidamide]
≥ 70%: inhibition of growth at 300 ppm (Alternaria solani) | inhibition of growth at 300 ppm (Pyricularia oryzae) | inhibition of growth at 300 ppm (Rhizoctonia solani) | inhibition of growth at 300 ppm [1] | inhibition of growth at 300 ppm (Colletotrichum capsici) | inhibition of growth at 300 ppm (Botrytis cinerea)

CCN(C)C=Nc1cc(C)cc(Nc2cccc(C)c2F)c1Cl [Compound 123, N′-(2-chloro-3-((2-fluoro-3-methylphenyl)amino)-5-methylphenyl)-N-ethyl-N-methylformimidamide]
≥ 70%: inhibition of growth at 300 ppm (Alternaria solani) | inhibition of growth at 300 ppm (Pyricularia oryzae) | inhibition of growth at 300 ppm [1] | inhibition of growth at 300 ppm (Colletotrichum capsici) | pest or weed control at 500 ppm (Phakopsora pachyrhizi) | inhibition of growth at 300 ppm (Botrytis cinerea)

CCN(C)C=Nc1cc(Cl)cc(Cc2ccc(Cl)c(F)c2)c1C [Compound 131, N′-(5-chloro-3-(4-chloro-3-fluorobenzyl)-2-methylphenyl)-N-ethyl-N-methylformimidamide]
≥ 70%: inhibition of growth at 300 ppm (Alternaria solani) | inhibition of growth at 300 ppm (Pyricularia oryzae) | inhibition of growth at 300 ppm (Rhizoctonia solani) | inhibition of growth at 300 ppm [1] | inhibition of growth at 300 ppm (Colletotrichum capsici) | pest or weed control at 500 ppm (Phakopsora pachyrhizi)

From patent publication US12545639B2, “3-substituted phenylamidine compounds, preparation and use thereof” (PI INDUSTRIES LTD., priority 2019, dated 2026)
